{"source": "patent US20240384350A1", "about": "“METHODS OF TREATING CANCER WITH KINASE INHIBITORS” (BOARD OF REGENTS, THE UNIVERSITY OF TEXAS SYSTEM, priority 2021, published 2024)", "assay_in_all_cases": "Ba/F3 drug screening, Cell Titer Glo, IC50 Mut/WT", "assay_type_in_all_cases": "cell-based", "key": {"EGFR S768dupSVD V769M": {"target": "T1, EGFR S768dupSVD V769M (Homo sapiens, UniProt P00533, INS768MDS/V769M)", "T1 construct": "expressed in transfected cells; host or cells: Ba/F3 cells, retroviral pBabe-Puro vector (vector made by GeneScript from EGFR S768dupSVD, c.2305G > A)", "conditions": "Ex20, 72 hours"}, "EGFR K754E": {"target": "T2, EGFR K754E (Homo sapiens, UniProt P00533, K754E)", "T2 construct": "expressed in transfected cells; host or cells: Ba/F3 cells, retroviral pBabe-Puro vector", "conditions": "Classical-Like, 72 hours"}, "EGFR Ex19del/C797S": {"target": "T3, EGFR Ex19del/C797S (Homo sapiens, UniProt P00533, C797S/DEL746-750)", "T3 construct": "expressed in transfected cells; host or cells: Ba/F3", "conditions": "PACC; Ex19del/C797S; Ba/F3; 72 hours"}, "EGFR S768I/V769L": {"target": "T4, EGFR S768I/V769L (Homo sapiens, UniProt P00533, S768I/V769L)", "T4 construct": "host or cells: Ba/F3", "conditions": "PACC; S768I/V769L; Ba/F3; 72 hours"}, "EGFR V769L": {"target": "T5, EGFR V769L (Homo sapiens, UniProt P00533, V769L)", "T5 construct": "expressed in transfected cells; host or cells: Ba/F3", "conditions": "PACC; V769L; Ba/F3; 72 hours", "procedure": "(§1) Data represent the ratio of the IC50 value for a given TKI for cells with a PACC EGFR mutation to the IC50 value for cells with wildtype EGFR.\n(§2) Ba/F3 cell generation, drug screening, and IC50 approximations. Ba/F3 cells were obtained as a gift from Dr. Gordon Mills (MD Anderson Cancer Center), and maintained in RPMI (Sigma) containing 10% FBS, 1% penicillin/streptomycin, and 10 ng/ml recombinant mIL-3 (R&D Biosystems). To establish stable Ba/F3 cell lines, Ba/F3 cells were transduced with retroviruses containing mutant EGFR plasmids for 12-24 hours.\n(§3) After 48-72 hours of transduction, 2 μg/ml puromycin (Invitrogen) was added to Ba/F3 cell lines in complete RPMI. To select for EGFR positive cell lines, cells were stained with PE-EGFR (Biolegend) and sorted by FACS. After sorting, EGFR positive cells were maintained in RPMI containing 10% FBS, 1% penicillin/streptomycin, and 1 ng/ml EGF to support cell viability. Drug screening was performed as previously described^41,42. Shortly, cells were plated in 384-well plates (Greiner Bio-One) at 2000-3000 cells per well in technical triplicate. Seven different concentrations of TKIs or DMSO vehicle were added to reach a final volume of 40 μL per well. After 72 hours, 11 μL of Cell Titer Glo (Promega) was added to each well. Plates were incubated for a minimum of 10 minutes, and bioluminescence was determined using a FLUOstar OPTIMA plate reader (BMG LABTECH). Raw bioluminescence values were normalized to DMSO control treated cells, and values were plotted in GraphPad Prism. […] Drug screens were performed in technical triplicate on each plate and either duplicate or triplicate biological replicates."}, "EGFR L858R/T790M/C797S": {"target": "T6, EGFR L858R/T790M/C797S (Homo sapiens, UniProt P00533, C797S/L858R/T790M)", "T6 construct": "expressed in transfected cells; host or cells: Ba/F3", "conditions": "T790M-like-3R, 72 hours"}, "EGFR L833V": {"target": "T7, EGFR L833V (Homo sapiens, UniProt P00533, L833V)", "T7 construct": "expressed in transfected cells; host or cells: Ba/F3 cells, retroviral pBabe-Puro vector", "conditions": "Classical-Like, 72 hours"}, "EGFR E709K L858R": {"target": "T8, EGFR E709K L858R (Homo sapiens, UniProt P00533, E709K/L858R)", "T8 construct": "expressed in transfected cells; host or cells: Ba/F3 cells, retroviral pBabe-Puro vector", "conditions": "Classical-Like, 72 hours"}, "EGFR L718Q T790M": {"target": "T9, EGFR L718Q T790M (Homo sapiens, UniProt P00533, L718Q/T790M)", "T9 construct": "expressed in transfected cells; host or cells: Ba/F3", "conditions": "T790M-like-3R, 72 hours"}, "EGFR L861R": {"target": "T10, EGFR L861R (Homo sapiens, UniProt P00533, L861R)", "T10 construct": "expressed in transfected cells; host or cells: Ba/F3 cells, retroviral pBabe-Puro vector (vector made by GeneScript from EGFR WT)", "conditions": "Classical-Like, 72 hours"}, "EGFR I740dupIPVAK": {"system": "EGFR I740dupIPVAK", "conditions": "PACC; I740dupIPVAK; Ba/F3; 72 hours"}, "EGFR S768I/T790M": {"target": "T11, EGFR S768I/T790M (Homo sapiens, UniProt P00533, S768I/T790M)", "T11 construct": "expressed in transfected cells; host or cells: Ba/F3", "conditions": "T790M-like-3S, 72 hours"}, "EGFR L861Q": {"target": "T12, EGFR L861Q (Homo sapiens, UniProt P00533, L861Q)", "T12 construct": "expressed in transfected cells; host or cells: Ba/F3 cells, retroviral pBabe-Puro vector", "conditions": "Classical-Like, 72 hours"}, "EGFR L858R T790M L718V": {"target": "T13, EGFR L858R T790M L718V (Homo sapiens, UniProt P00533, L718V/L858R/T790M)", "T13 construct": "expressed in transfected cells; host or cells: Ba/F3", "conditions": "T790M-like-3R, 72 hours", "procedure": "(§4) Data represent the ratio of the IC50 value for a given TKI for cells with a T790M-like-3R EGFR mutation to the IC50 value for cells with wildtype EGFR.\nas §2\n(§5) After 48-72 hours of transduction, 2 μg/ml puromycin (Invitrogen) was added to Ba/F3 cell lines in complete RPMI. To select for EGFR positive cell lines, cells were stained with PE-EGFR (Biolegend) and sorted by FACS. After sorting, EGFR positive cells were maintained in RPMI containing 10% FBS, 1% penicillin/streptomycin, and 1 ng/ml EGF to support cell viability. […] Shortly, cells were plated in 384-well plates (Greiner Bio-One) at 2000-3000 cells per well in technical triplicate. Seven different concentrations of TKIs or DMSO vehicle were added to reach a final volume of 40 μL per well. After 72 hours, 11 μL of Cell Titer Glo (Promega) was added to each well. Plates were incubated for a minimum of 10 minutes, and bioluminescence was determined using a FLUOstar OPTIMA plate reader (BMG LABTECH). Raw bioluminescence values were normalized to DMSO control treated cells, and values were plotted in GraphPad Prism. […] Drug screens were performed in technical triplicate on each plate and either duplicate or triplicate biological replicates. […] Statistical differences between groups were determined by ANOVA as described in the figure legends."}, "EGFR G724S": {"target": "T14, EGFR G724S (Homo sapiens, UniProt P00533, G724S)", "T14 construct": "expressed in transfected cells; host or cells: Ba/F3", "conditions": "PACC; G724S; Ba/F3; 72 hours"}, "EGFR L747P": {"target": "T15, EGFR L747P (Homo sapiens, UniProt P00533, L747P)", "T15 construct": "expressed in transfected cells; host or cells: Ba/F3", "conditions": "PACC; L747P; Ba/F3; 72 hours", "procedure": "as §1, §2\nAfter 48-72 hours of transduction, 2 μg/ml puromycin (Invitrogen) was added to Ba/F3 cell lines in complete RPMI. To select for EGFR positive cell lines, cells were stained with PE-EGFR (Biolegend) and sorted by FACS. After sorting, EGFR positive cells were maintained in RPMI containing 10% FBS, 1% penicillin/streptomycin, and 1 ng/ml EGF to support cell viability. Drug screening was performed as previously described^41,42. Shortly, cells were plated in 384-well plates (Greiner Bio-One) at 2000-3000 cells per well in technical triplicate. Seven different concentrations of TKIs or DMSO vehicle were added to reach a final volume of 40 μL per well. After 72 hours, 11 μL of Cell Titer Glo (Promega) was added to each well. Plates were incubated for a minimum of 10 minutes, and bioluminescence was determined using a FLUOstar OPTIMA plate reader (BMG LABTECH). Raw bioluminescence values were normalized to DMSO control treated cells, and values were plotted in GraphPad Prism. […] Drug screens were performed in technical triplicate on each plate and either duplicate or triplicate biological replicates. […] Statistical differences between groups were determined by ANOVA as described in the figure legends."}, "EGFR G719A/R776C": {"target": "T16, EGFR G719A/R776C (Homo sapiens, UniProt P00533, G719A/R776C)", "T16 construct": "expressed in transfected cells; host or cells: Ba/F3", "conditions": "PACC; G719A/R776C; Ba/F3; 72 hours"}, "EGFR G724S T790M": {"target": "T17, EGFR G724S T790M (Homo sapiens, UniProt P00533, G724S/T790M)", "T17 construct": "expressed in transfected cells; host or cells: Ba/F3", "conditions": "T790M-like-3R, 72 hours", "procedure": "as §4, §2, §5"}, "EGFR Ex19del L718V": {"target": "T18, EGFR Ex19del L718V (Homo sapiens, UniProt P00533, DEL746-750/L718V)", "T18 construct": "expressed in transfected cells; host or cells: Ba/F3", "conditions": "PACC; Ex19del L718V; Ba/F3; 72 hours", "procedure": "as §1, §2, §3"}, "EGFR S768I": {"target": "T19, EGFR S768I (Homo sapiens, UniProt P00533, S768I)", "T19 construct": "expressed in transfected cells; host or cells: Ba/F3", "conditions": "PACC; S768I; Ba/F3; 72 hours"}, "EGFR L718Q": {"target": "T20, EGFR L718Q (Homo sapiens, UniProt P00533, L718Q)", "T20 construct": "expressed in transfected cells; host or cells: Ba/F3", "conditions": "PACC; L718Q; Ba/F3; 72 hours"}, "EGFR R776H": {"target": "T21, EGFR R776H (Homo sapiens, UniProt P00533, R776H)", "T21 construct": "host or cells: Ba/F3", "conditions": "PACC; R776H; Ba/F3; 72 hours", "procedure": "as §1, §2, §3"}, "EGFR L858R G724S": {"target": "T22, EGFR L858R G724S (Homo sapiens, UniProt P00533, G724S/L858R)", "T22 construct": "expressed in transfected cells; host or cells: Ba/F3 (retroviral transduction, pBabe-Puro based vectors)", "conditions": "PACC; L858R G724S; Ba/F3; 72 hours", "procedure": "as §1, §2, §3"}, "EGFR R776C": {"target": "T23, EGFR R776C (Homo sapiens, UniProt P00533, R776C)", "T23 construct": "host or cells: Ba/F3", "conditions": "PACC; R776C; Ba/F3; 72 hours"}, "EGFR L858R T790M V843I": {"target": "T24, EGFR L858R T790M V843I (Homo sapiens, UniProt P00533, L858R/T790M/V843I)", "T24 construct": "expressed in transfected cells; host or cells: Ba/F3", "conditions": "T790M-like-3S, 72 hours"}, "EGFR Ex19del/L792H": {"target": "T25, EGFR Ex19del/L792H (Homo sapiens, UniProt P00533, DEL746-750/L792H)", "T25 construct": "expressed in transfected cells; host or cells: Ba/F3", "conditions": "PACC; Ex19del/L792H; Ba/F3; 72 hours"}}}
{"compound": "CNC(=O)CN1CCC(Oc2cc3c(Nc4cccc(Cl)c4F)ncnc3cc2OC)CC1", "note": "[Sapatinib]", "values": [{"measurement": "ratio of IC50 for cells with mutant EGFR to IC50 for cells with wildtype EGFR (Mut/WT)", "setting": "EGFR S768dupSVD V769M", "result": 1.596}, {"measurement": "ratio of IC50 for cells with mutant EGFR to IC50 for cells with wildtype EGFR (Mut/WT)", "setting": "EGFR K754E", "result": 0.00307}, {"measurement": "ratio of IC50 for cells with mutant EGFR to IC50 for cells with wildtype EGFR (Mut/WT)", "setting": "EGFR Ex19del/C797S", "result": 0.0006085}, {"measurement": "ratio of IC50 for cells with mutant EGFR to IC50 for cells with wildtype EGFR (Mut/WT)", "setting": "EGFR S768I/V769L", "result": 0.2596}, {"measurement": "ratio of IC50 for cells with mutant EGFR to IC50 for cells with wildtype EGFR (Mut/WT)", "setting": "EGFR V769L", "result": 0.1992}, {"measurement": "ratio of IC50 for cells with mutant EGFR to IC50 for cells with wildtype EGFR (Mut/WT)", "setting": "EGFR L858R/T790M/C797S", "result": 66.82}, {"measurement": "ratio of IC50 for cells with mutant EGFR to IC50 for cells with wildtype EGFR (Mut/WT)", "setting": "EGFR L833V", "result": 0.008594}, {"measurement": "ratio of IC50 for cells with mutant EGFR to IC50 for cells with wildtype EGFR (Mut/WT)", "setting": "EGFR E709K L858R", "result": 0.02084}, {"measurement": "ratio of IC50 for cells with mutant EGFR to IC50 for cells with wildtype EGFR (Mut/WT)", "setting": "EGFR L718Q T790M", "result": 54.78}, {"measurement": "ratio of IC50 for cells with mutant EGFR to IC50 for cells with wildtype EGFR (Mut/WT)", "setting": "EGFR L861R", "result": 0.002811}, {"measurement": "ratio of IC50 for cells with mutant EGFR to IC50 for cells with wildtype EGFR (Mut/WT)", "setting": "EGFR I740dupIPVAK", "result": 0.008351}, {"measurement": "ratio of IC50 for cells with mutant EGFR to IC50 for cells with wildtype EGFR (Mut/WT)", "setting": "EGFR S768I/T790M", "result": 54.78}, {"measurement": "ratio of IC50 for cells with mutant EGFR to IC50 for cells with wildtype EGFR (Mut/WT)", "setting": "EGFR L861Q", "result": 0.01265}, {"measurement": "ratio of IC50 for cells with mutant EGFR to IC50 for cells with wildtype EGFR (Mut/WT)", "setting": "EGFR L858R T790M L718V", "result": 41.48}, {"measurement": "ratio of IC50 for cells with mutant EGFR to IC50 for cells with wildtype EGFR (Mut/WT)", "setting": "EGFR G724S", "result": 0.141}, {"measurement": "ratio of IC50 for cells with mutant EGFR to IC50 for cells with wildtype EGFR (Mut/WT)", "setting": "EGFR L747P", "result": 0.03076}, {"measurement": "ratio of IC50 for cells with mutant EGFR to IC50 for cells with wildtype EGFR (Mut/WT)", "setting": "EGFR G719A/R776C", "result": 0.0489}, {"measurement": "ratio of IC50 for cells with mutant EGFR to IC50 for cells with wildtype EGFR (Mut/WT)", "setting": "EGFR G724S T790M", "result": 48.62}, {"measurement": "ratio of IC50 for cells with mutant EGFR to IC50 for cells with wildtype EGFR (Mut/WT)", "setting": "EGFR Ex19del L718V", "result": 0.08016}, {"measurement": "ratio of IC50 for cells with mutant EGFR to IC50 for cells with wildtype EGFR (Mut/WT)", "setting": "EGFR S768I", "result": 0.1883}, {"measurement": "ratio of IC50 for cells with mutant EGFR to IC50 for cells with wildtype EGFR (Mut/WT)", "setting": "EGFR L718Q", "result": 2.03}, {"measurement": "ratio of IC50 for cells with mutant EGFR to IC50 for cells with wildtype EGFR (Mut/WT)", "setting": "EGFR R776H", "result": 0.001939}, {"measurement": "ratio of IC50 for cells with mutant EGFR to IC50 for cells with wildtype EGFR (Mut/WT)", "setting": "EGFR L858R G724S", "result": 0.0004959}, {"measurement": "ratio of IC50 for cells with mutant EGFR to IC50 for cells with wildtype EGFR (Mut/WT)", "setting": "EGFR R776C", "result": 0.02012}, {"measurement": "ratio of IC50 for cells with mutant EGFR to IC50 for cells with wildtype EGFR (Mut/WT)", "setting": "EGFR L858R T790M V843I", "result": 49}, {"measurement": "ratio of IC50 for cells with mutant EGFR to IC50 for cells with wildtype EGFR (Mut/WT)", "setting": "EGFR Ex19del/L792H", "result": 53.47}]}
